In ChEMBL document CHEMBL1122110, “Use of (S)-(trifloxymethyl)oxirane in the synthesis of a chiral beta-adrenoceptor antagonist, (R)- and (S)-9-[[3-(tert-butylamino)-2-hydroxypropyl]oximino]fluorene” (J Med Chem, 1982):

What was measured:
[1] = molecular target: Beta-1 adrenergic receptor (Cavia porcellus, UniProt B0FL73); experiment: Compound was tested for its Beta-1 adrenergic receptor antagonistic activity on guinea pig atria; format: functional; conditions: read-out: pA2 (converted)
[2] = molecular target: Beta-2 adrenergic receptor (Cavia porcellus, UniProt Q8K4Z4); experiment: Beta-2 adrenergic receptor antagonistic activity on guinea pig tracheal chains; format: functional; conditions: read-out: pA2 (converted)
Chain of Beta-2 adrenergic receptor (Cavia porcellus, UniProt Q8K4Z4) (Q8K4Z4 whole entry): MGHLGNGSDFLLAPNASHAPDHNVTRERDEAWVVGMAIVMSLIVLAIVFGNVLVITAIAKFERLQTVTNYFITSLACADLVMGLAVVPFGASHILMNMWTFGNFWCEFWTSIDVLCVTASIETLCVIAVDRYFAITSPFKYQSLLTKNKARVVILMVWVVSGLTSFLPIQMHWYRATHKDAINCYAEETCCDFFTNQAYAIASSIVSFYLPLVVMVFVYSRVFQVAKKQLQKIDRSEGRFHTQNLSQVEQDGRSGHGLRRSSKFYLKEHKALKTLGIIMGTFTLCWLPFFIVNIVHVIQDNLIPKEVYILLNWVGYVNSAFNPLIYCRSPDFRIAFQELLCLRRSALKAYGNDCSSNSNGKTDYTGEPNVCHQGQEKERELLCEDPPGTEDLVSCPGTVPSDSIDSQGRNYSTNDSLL

[3] = molecular target: Beta-2 adrenergic receptor (Bos taurus, UniProt Q28044); experiment: Compound was tested for inhibition of [3H]dihydroalprenolol radioligand binding to Beta-2 adrenergic receptor in calf lung membranes.; format: cell membranes
Chain of Beta-2 adrenergic receptor (Bos taurus, UniProt Q28044) (Q28044 whole entry): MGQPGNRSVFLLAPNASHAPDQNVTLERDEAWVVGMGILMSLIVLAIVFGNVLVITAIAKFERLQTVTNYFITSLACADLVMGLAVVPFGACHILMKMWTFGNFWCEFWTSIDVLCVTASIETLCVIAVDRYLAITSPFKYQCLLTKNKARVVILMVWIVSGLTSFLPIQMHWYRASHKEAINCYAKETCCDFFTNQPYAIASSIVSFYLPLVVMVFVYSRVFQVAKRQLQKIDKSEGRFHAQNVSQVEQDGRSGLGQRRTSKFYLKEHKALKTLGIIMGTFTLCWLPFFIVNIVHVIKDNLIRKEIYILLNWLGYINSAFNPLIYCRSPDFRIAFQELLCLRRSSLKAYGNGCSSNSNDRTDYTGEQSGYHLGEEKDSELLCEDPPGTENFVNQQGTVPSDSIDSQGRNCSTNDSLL

Chain of Beta-1 adrenergic receptor (B0FL73 whole entry): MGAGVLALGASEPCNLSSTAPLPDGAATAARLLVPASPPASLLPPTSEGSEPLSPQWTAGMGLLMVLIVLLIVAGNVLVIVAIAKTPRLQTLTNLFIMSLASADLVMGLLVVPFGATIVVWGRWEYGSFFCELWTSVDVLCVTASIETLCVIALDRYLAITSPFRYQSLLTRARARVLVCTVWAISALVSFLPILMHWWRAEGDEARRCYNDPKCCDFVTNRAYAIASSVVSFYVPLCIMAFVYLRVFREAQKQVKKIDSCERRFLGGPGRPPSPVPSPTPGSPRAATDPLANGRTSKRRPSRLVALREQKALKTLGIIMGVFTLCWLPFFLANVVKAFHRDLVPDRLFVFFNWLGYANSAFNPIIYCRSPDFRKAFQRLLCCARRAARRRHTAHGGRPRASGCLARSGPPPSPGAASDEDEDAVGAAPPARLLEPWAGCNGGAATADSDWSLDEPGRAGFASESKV

Compound | Kb [1] | Kb [2] | IC50 [3]
CCC(C)(C)NCC(O)CON=C1c2ccccc2-c2ccccc21 (stereo unspecified) | 34.7 nM | 85.1 nM | 
CC(C)(C)NC[C@H](O)CON=C1c2ccccc2-c2ccccc21 | 37.2 nM | 17 nM | 30.8 nM
Cc1ccc(OCC(O)CNC(C)C)c2c1CCC2 (stereo unspecified) | 97.7 nM | 31.6 nM | 17.6 nM
CC(C)(C)NCC(O)CON=C1c2ccccc2-c2ccccc21 (stereo unspecified) | 33.9 nM | 66.1 nM | 24.6 nM
CC(C)(C)NC[C@@H](O)CON=C1c2ccccc2-c2ccccc21 | 13.2 nM | 18.2 nM | 20.1 nM
CCC(C)(C)NC[C@H](O)CON=C1c2ccccc2-c2ccccc21 | 16.6 nM | 74.1 nM | 
